Laboratory results published in patent publication US11207331B2, “Agents, compositions and methods for enhancing neurological function” (University of Southern California, priority 2007, dated 2021).

System: hippocampal neural cells
Experiment: 3H-thymidine uptake in cultured hippocampal neural cells
Format: cell-based, rat
Conditions: 24 hours, 37° C.
Experimental: Biochemical analyses of 3H-thymidine uptake, as a measure of DNA synthesis, were used as the experimental vehicle to confirm the morphological observations described in examples 1 and 2. […] Thus, the range for the neurogenic effect of THP on neural cells is quite is sensitive and quite broad.
For these experiments, cultured hippocampal neural cells, derived from embryonic day 18 rat fetuses, were allowed to adhere to polylysine coated plastic cover-slips for 40 min in serum containing medium. Following adhesion, neurons were exposed to […] 3H-thymidine in the presence or absence of 100-500 nM THP and allowed to incubate at 37° C. for 24 hours in the absence or presence of the indicated steroids. Data are expressed as mean+SEM, *p<. 05,**p<0.01, ***p<0.001.
The time course of THP-induced 3H-thymidine incorporation in hippocampal neuronal cells is shown in FIG. 9 where cultured hippocampal nerve cells, derived from embryonic day 18 rat fetuses, were allowed to adhere to polylysine coated plastic cover-slips for 40 min in serum containing medium. Following adhesion, serum containing medium in the presence or absence of 10-250 nM THP plus […] 3H-thymidine and allowed to incubate at 37 for 1, 8 or 24 hours. Data are expressed as mean±SEM, *p<0.05,**p<0.01,***p<0.001.

Compound	effect on 3H-thymidine incorporation (steroid specificity)
5α,3α-pregnan-diol	significant decrease
pregnenolone sulfate	significant decrease
CC(=O)[C@H]1CC[C@H]2[C@@H]3CC[C@@H]4C[C@@H](O)CC[C@]4(C)[C@H]3CC[C@]12C [5ss, 3ss-THP]	no effect
5α,3α-pregnan-triol	significant decrease
CC(=O)[C@H]1CC[C@H]2[C@@H]3CCC4=CC(=O)CC[C@]4(C)[C@H]3CC[C@]12C [Progesterone]	modest increase
CC(=O)[C@H]1CC[C@H]2[C@@H]3CC[C@H]4C[C@@H](O)CC[C@]4(C)[C@H]3CC[C@]12C [5cc, 3ss-THP]	no effect
5α, 3P-pregnen-3-one	no effect
